The target of one test is c-Cbl (Homo sapiens (Human), UniProt P22681). Put plainly: C-Cbl LCK Ub TR-FRET assay (c-cbl Lck HTRF). It is filed as biochemical. The conditions noted are these: for (fold-selectivity): C-cbl Lck HTRF IC50 relative to Cbl-b Lck HTRF IC50. An outline of the steps:
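Detection reagents added, brief spin, 20 min RT. IC50 fit normalized to no-LCK (low) and DMSO (high) controls.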

The next test has as its target Cbl-b (Homo sapiens (Human), UniProt Q13191). Nature of the test: Cbl-b LCK Ub TR-FRET assay (Cbl-b Lck HTRF). It is filed as biochemical. An outline of the steps: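 TR-FRET (340 nm excitation, 615/665 nm emission) read after adding HA-ubiquitin–UBE2D2 thioester, anti-HA-D2 and streptavidin-Eu. Beforehand, compounds incubated 60 min with biotinylated Cbl-b, then 90 min with His-LCK and ATP (1 mM in 2× mix); IC50 from 10 concentrations, DMSO high and no-LCK low controls.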
(TR-FRET usually uses a lanthanide donor and a delayed reading to cut background.)

Where a name gives a salt, the structure may show the parent alone.

Chain of Cbl-b (Q13191 40-426): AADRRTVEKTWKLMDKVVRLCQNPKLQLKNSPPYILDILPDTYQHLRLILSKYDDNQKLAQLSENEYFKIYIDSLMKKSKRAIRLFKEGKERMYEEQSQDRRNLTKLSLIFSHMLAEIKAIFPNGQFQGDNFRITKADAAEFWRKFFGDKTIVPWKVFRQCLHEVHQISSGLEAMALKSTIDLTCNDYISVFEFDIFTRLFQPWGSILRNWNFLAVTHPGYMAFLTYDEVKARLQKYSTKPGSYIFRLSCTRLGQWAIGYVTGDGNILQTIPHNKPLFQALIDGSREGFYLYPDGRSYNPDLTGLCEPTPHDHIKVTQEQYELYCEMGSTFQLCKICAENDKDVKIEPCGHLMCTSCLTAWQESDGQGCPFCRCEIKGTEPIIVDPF
Chain of c-Cbl (P22681 47-435): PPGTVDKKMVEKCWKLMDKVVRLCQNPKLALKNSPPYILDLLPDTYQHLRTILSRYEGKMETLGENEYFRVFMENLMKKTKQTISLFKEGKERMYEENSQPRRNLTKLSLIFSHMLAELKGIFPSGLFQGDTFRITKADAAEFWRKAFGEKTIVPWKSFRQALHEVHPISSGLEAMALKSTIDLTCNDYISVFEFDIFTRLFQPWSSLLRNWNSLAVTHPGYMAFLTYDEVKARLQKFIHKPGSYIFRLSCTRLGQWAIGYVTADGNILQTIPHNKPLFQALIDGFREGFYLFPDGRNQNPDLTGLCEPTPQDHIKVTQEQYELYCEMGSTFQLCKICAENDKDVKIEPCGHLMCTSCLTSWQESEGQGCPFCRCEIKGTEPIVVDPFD

On to `Cc1cnnn1CC1(c2cccc(N3Cc4c(cc(CNC5(C)CCC5)cc4C(F)(F)F)C3=O)c2)COC1` [Compound 243, 2-(3-(3-((5-methyl-1H-1,2,3-triazol-1-yl)methyl)oxetan-3-yl)-phenyl)-6-(((1-methylcyclobutyl)amino)methyl)-4-(trifluoromethyl)isoindolin-1-one], for which, on c-Cbl, the IC50 (usually the midpoint of a concentration-inhibition curve) came out at 0.047 µM and the “(fold-selectivity)” value is “(1.6x)”. Also, on Cbl-b, half-maximal inhibition (IC50) required 0.029 µM.

As for `CC(C)N(C)Cc1cc2c(c(C(F)(F)F)c1)CN(c1cccc(C3([C@@H](F)c4nncn4C)CC(F)(F)C3)c1)C2=O` [Compound 419, (R)-2-(3-(3,3-difluoro-1-(fluoro(4-methyl-4H-1,2,4-triazol-3-yl)methyl)cyclobutyl)phenyl)-6-((isopropyl(methyl)amino)methyl)-4-(trifluoromethyl)isoindolin-1-one], on c-Cbl, the 50% inhibitory concentration (IC50) stood at 0.42 µM and the “(fold-selectivity)” value is “(1.2x)”. This compound also displayed an IC50 on Cbl-b of 0.36 µM.

As for `Cn1cnnc1CC1(c2cc(C3CC3)nc(N3Cc4c(cc(CNC5(C)CCC5)cc4C(F)(F)F)C3=O)c2)CCC1` [Compound 284, 2-(6-cyclopropyl-4-(1-((4-methyl-4H-1,2,4-triazol-3-yl)methyl)cyclobutyl)pyridin-2-yl)-6-(((1-methylcyclobutyl)amino)methyl)-4-(trifluoromethyl)isoindolin-1-one], on c-Cbl, it took 0.0074 µM to reach half-maximal inhibition (IC50) and the “(fold-selectivity)” value is given as “(0.59x)”. The same compound gave a half-inhibitory concentration (IC50) against Cbl-b of 0.012 µM.

For `Cn1cnnc1[C@@H](F)C1(c2cccc(N3Cc4c(cc(CNCCCF)cc4C(F)(F)F)C3=O)c2)CC(F)(F)C1` [Compound 448, (S)-2-(3-(3,3-difluoro-1-(fluoro(4-methyl-4H-1,2,4-triazol-3-yl)methyl)cyclobutyl)phenyl)-6-(((3-fluoropropyl)amino)methyl)-4-(trifluoromethyl)isoindolin-1-one], at c-Cbl, the IC50 was 0.016 µM and the “(fold-selectivity)” value is recorded as “(1.1x)”. This compound also showed a 50% inhibitory concentration (IC50) on Cbl-b of 0.014 µM.

On to `Cn1cnnc1[C@H](F)C1(c2cccc(N3Cc4c(cccc4C(F)F)C3=O)c2)COC1` [Compound 59, (R)-4-(difluoromethyl)-2-(3-(3-(fluoro(4-methyl-4H-1,2,4-triazol-3-yl)methyl)oxetan-3-yl)phenyl)isoindolin-1-one], for which, on c-Cbl, the midpoint of inhibition, the IC50, lay at 1.3 µM and the “(fold-selectivity)” value came to 2.1x. This compound returned an IC50 on Cbl-b of 0.59 µM.

For the compound `CC(C)C1(O)CN(Cc2cc3c(c(C(F)(F)F)c2)CN(c2cccc(C4([C@H](F)c5nncn5C)COC4)c2)C3=O)C1` [Compound 184, (S)-2-(3-(3-(fluoro(4-methyl-4H-1,2,4-triazol-3-yl)methyl)oxetan-3-yl)phenyl)-6-((3-hydroxy-3-isopropylazetidin-1-yl)methyl)-4-(trifluoromethyl)isoindolin-1-one], on c-Cbl, half-maximal inhibition (IC50) was put at 0.37 µM and the “(fold-selectivity)” value is 2.3x. The compound further displayed a half-maximal inhibitory concentration (IC50) against Cbl-b of 0.16 µM.

As to `Cn1cnnc1[C@H](F)C1(c2cccc(N3Cc4c(cc(CN5CC(C)(C)C5)cc4C(F)(F)F)C3=O)c2)COC1` [Compound 72, (R)-6-((3,3-dimethylazetidin-1-yl)methyl)-2-(3-(3-(fluoro(4-methyl-4H-1,2,4-triazol-3-yl)methyl)oxetan-3-yl)phenyl)-4-(trifluoromethyl)isoindolin-1-one], the IC50 at c-Cbl is 0.11 µM; at Cbl-b, 0.055 µM. Moreover, on c-Cbl, the “(fold-selectivity)” value was determined as 2.1x.

As to `CC(C)[C@H]1CN(C)CCN1Cc1cc2c(c(C(F)(F)F)c1)CN(c1cccc(C3([C@H](F)c4nncn4C4CCCCC4)COC3)c1)C2=O` [Compound 455, 2-(3-(3-((S)-(4-cyclohexyl-4H-1,2,4-triazol-3-yl)fluoromethyl)oxetan-3-yl)phenyl)-6-(((S)-2-isopropyl-4-methylpiperazin-1-yl)methyl)-4-(trifluoromethyl)isoindolin-1-one], at c-Cbl, the IC50 turned out to be 3.1 µM and the “(fold-selectivity)” value was “(0.70x)”. Besides, the IC50 at Cbl-b worked out at 4.4 µM.

Consider `CC(C)[C@H]1CN(C)CCN1Cc1cc2c(c(C(F)(F)F)c1)CN(c1cccc(C3([C@H](F)c4nncn4C)COC3)c1)C2=O` [Compound 188, 2-(3-(3-((S)-fluoro(4-methyl-4H-1,2,4-triazol-3-yl)methyl)oxetan-3-yl)phenyl)-6-(((S)-2-isopropyl-4-methylpiperazin-1-yl)methyl)-4-(trifluoromethyl)isoindolin-1-one], for which, on c-Cbl, the IC50 is 0.025 µM and the “(fold-selectivity)” value is 2.0x. The compound also displayed a 50% inhibitory concentration (IC50) on Cbl-b of 0.013 µM.

Consider `CC1CCN(CCNc2cc(C3(Cc4nncn4C)CCC3)cc(N3Cc4c(cc(CNC5(C)CCC5)cc4C(F)(F)F)C3=O)n2)CC1` [Compound 309, 2-(4-(1-((4-methyl-4H-1,2,4-triazol-3-yl)methyl)cyclobutyl)-6-((2-(4-methylpiperidin-1-yl)ethyl)amino)pyridin-2-yl)-6-(((1-methylcyclobutyl)amino)methyl)-4-(trifluoromethyl)isoindolin-1-one formate], for which the half-maximal inhibitory concentration (IC50) against c-Cbl was found to be 0.52 µM; against Cbl-b, 0.54 µM.

On to `Cn1cnnc1[C@@H](F)C1(c2cccc(N3Cc4c(cc(CN5CC(C)(CF)C5)cc4C(F)(F)F)C3=O)c2)COC1` [Compound 77, (S)-2-(3-(3-(fluoro(4-methyl-4H-1,2,4-triazol-3-yl)methyl)oxetan-3-yl)phenyl)-6-((3-(fluoromethyl)-3-methylazetidin-1-yl)methyl)-4-(trifluoromethyl)isoindolin-1-one], for which, on c-Cbl, the concentration for half-maximal inhibition (IC50) was 0.37 µM and the “(fold-selectivity)” value came to 1.8x. This compound also had an IC50 at Cbl-b of 0.21 µM.

Regarding `CNCc1cc2c(c(C(F)(F)F)c1)CN(c1cc(C3(Cc4nncn4C)COC3)cc(NC3CCCC3)n1)C2=O` [Compound 277, 2-(6-(cyclopentylamino)-4-(3-((4-methyl-4H-1,2,4-triazol-3-yl)methyl)oxetan-3-yl)pyridin-2-yl)-6-((methylamino)methyl)-4-(trifluoromethyl)isoindolin-1-one], on c-Cbl, inhibition was half-maximal at 0.87 µM (IC50) and the “(fold-selectivity)” value is given as “(3.8x)”. The compound also came in with an IC50 against Cbl-b of 0.23 µM.

Turning to `Cn1cnnc1CC1(c2cccc(N3Cc4c(cc(CN)cc4C(F)(F)F)C3=O)c2)CC(F)(F)C1` [Compound 400, 6-(aminomethyl)-2-(3-(3,3-difluoro-1-((4-methyl-4H-1,2,4-triazol-3-yl)methyl)cyclobutyl)phenyl)-4-(trifluoromethyl)isoindolin-1-one], the values for the IC50 on c-Cbl and against Cbl-b were 0.051 µM and 0.039 µM, respectively. The “(fold-selectivity)” value at c-Cbl is recorded as “(1.3x)”.

For the compound `Cn1cnnc1[C@H](F)C1(c2cccc(N3Cc4c(cc(CN)cc4C(F)(F)F)C3=O)c2)CC(F)(F)C1.O=CO` [Compound 393, (R)-6-(aminomethyl)-2-(3-(3,3-difluoro-1-(fluoro(4-methyl-4H-1,2,4-triazol-3-yl)methyl)cyclobutyl)phenyl)-4-(trifluoromethyl)isoindolin-1-one formate], on c-Cbl, it took 0.17 µM to reach half-maximal inhibition (IC50) and the “(fold-selectivity)” value was “(1.3x)”. This compound gave a concentration for half-maximal inhibition (IC50) at Cbl-b of 0.13 µM.

With `C[C@H](NC1(C)CCC1)c1cc2c(c(C(F)(F)F)c1)CN(c1cccc(C3(Cc4nncn4C)CC(F)(F)C3)c1)C2=O` [Compound 246, (S)-2-(3-(3,3-difluoro-1-((4-methyl-4H-1,2,4-triazol-3-yl)methyl)-cyclobutyl)phenyl)-6-(1-((1-methylcyclobutyl)amino)ethyl)-4-(trifluoromethyl)isoindolin-1-one], on c-Cbl, the concentration for half-maximal inhibition (IC50) worked out at 0.0044 µM and the “(fold-selectivity)” value is recorded as “(0.76x)”. At Cbl-b, this compound gave an IC50 of 0.0058 µM.

For the compound `CC(C)[C@H]1CN(C)CCN1Cc1cc2c(c(C(F)(F)F)c1)CN(c1cccc([C@]3([C@@H](F)c4nncn4C)CCO3)c1)C2=O` (single isomer, unassigned) [Compound 261], the 50% inhibitory concentration (IC50) at c-Cbl was determined as 0.15 µM; at Cbl-b it was 0.14 µM. Also, the “(fold-selectivity)” value at c-Cbl is given as “(1.1x)”.

`Cn1cnnc1[C@H](F)C1(c2cccc(N3Cc4c(cc(CN5CC6(COC6)C5)cc4C(F)(F)F)C3=O)c2)COC1` [Compound 9, (R)-6-(2-oxa-6-azaspiro[3.3]heptan-6-ylmethyl)-2-(3-(3-(fluoro(4-methyl-4H-1,2,4-triazol-3-yl)methyl)oxetan-3-yl)phenyl)-4-(trifluoromethyl)isoindolin-1-one]: at c-Cbl, inhibition was half-maximal at 0.35 µM (IC50) and the “(fold-selectivity)” value is 2.1x. This compound also yielded an IC50 at Cbl-b of 0.16 µM.

Regarding `Cn1cnnc1CC1(c2cccc(N3Cc4c(cc(CNCC5COC(C)(C)O5)cc4C(F)(F)F)C3=O)c2)CC(F)(F)C1` (stereo not shown) [Compound 357, 2-(3-(3,3-difluoro-1-((4-methyl-4H-1,2,4-triazol-3-yl)methyl)cyclobutyl)phenyl)-6-((((2,2-dimethyl-1,3-dioxolan-4-yl)methyl)amino)methyl)-4-(trifluoromethyl)isoindolin-1-one formate], the IC50 worked out at 0.041 µM on c-Cbl and 0.038 µM at Cbl-b.

In the case of `COCC1(NCc2cc3c(c(C(F)(F)F)c2)CN(c2cccc(C4(Cc5nncn5C)CC(F)(F)C4)c2)C3=O)CC1` [Compound 367, 2-(3-(3,3-difluoro-1-((4-methyl-4H-1,2,4-triazol-3-yl)methyl)cyclobutyl)phenyl)-6-(((1-(methoxymethyl)cyclopropyl)amino)methyl)-4-(trifluoromethyl)isoindolin-1-one], the values for the IC50 at c-Cbl and against Cbl-b were 0.029 µM and 0.03 µM, respectively. In addition, the “(fold-selectivity)” value on c-Cbl was “(0.96x)”.

Consider `Cn1cnnc1[C@H](F)C1(c2cccc(N3Cc4c(cc(CN5CCOCC5)cc4C(F)(F)F)C3=O)c2)COC1` [Compound 88, (R)-2-(3-(3-(fluoro(4-methyl-4H-1,2,4-triazol-3-yl)methyl)oxetan-3-yl)phenyl)-6-(morpholinomethyl)-4-(trifluoromethyl)isoindolin-1-one], for which, on c-Cbl, the IC50 turned out to be 0.21 µM and the “(fold-selectivity)” value was determined as 2.1x. For the same compound, on Cbl-b, half-maximal inhibition (IC50) required 0.1 µM.

The values above are taken from patent publication US20250230147A1, “LACTAMS AS CBL-B INHIBITORS” (Genentech, Inc., priority 2021, published 2025).
